According to patent US8962830B2, “Protein kinase inhibitors and methods of treatment” (The Walter and Eliza Hall Institute of Medical Research, priority 2010, dated 2015):

Biological target: T1, Src recombinant enzyme, N-terminally His6 tagged full-length human protein (Homo sapiens, UniProt P12931)
T1 construct: Src recombinant enzyme was purchased as N-terminally His6 tagged full-length human protein; His6 (N); purchased
Assay: SRC kinase inhibition assay (AlphaScreen)
Format: biochemical
Conditions: 80 μM ATP, 90 minutes at 30 degree Celsius
Procedure: Protocol for SRC Kinase Inhibition Assay. Compounds of the invention were tested for in vitro activity in the following assay: A biotin labeled peptide was used as substrate (amino acid sequence: Biotin-[…]). Src recombinant enzyme was purchased as N-terminally His6 tagged full-length human protein. The 15 μL assay reactions were run in Greiner brand white 384-well low volume plates. […] Compounds were added in a volume of 100 nL from dilution series made up in DMSO, positive and negative control reactions receiving the same volume DMSO without compounds. The plates were sealed with adhesive seals and incubated for 90 minutes at 30 degree Celsius. The reactions were stopped with the detection reagents added at the same time. Product formation was quantified as photochemiluminescence between PerkinElmer AlphaScreenTM beads, using Streptavidin-coated donor and anti-phosphotyrosine (P-[…]) acceptor beads. […] Plates were incubated for 5 hours before being read on a PerkinElmer EnVisionTM plate reader in HTS AlphascreenTM mode. IC50 values were obtained by calculating percent inhibition (% I) for each reaction relative to controls on the same plate (% [SMILES] where CN/CP are the averages of the negative/positive reactions, respectively), then fitting the % I data vs. compound concentration [I] to % I=([…])))) where A is the lower asymptote, B is the upper asymptote, C is the IC50 value, and D is the slope factor.

T1 sequence (P12931 whole entry): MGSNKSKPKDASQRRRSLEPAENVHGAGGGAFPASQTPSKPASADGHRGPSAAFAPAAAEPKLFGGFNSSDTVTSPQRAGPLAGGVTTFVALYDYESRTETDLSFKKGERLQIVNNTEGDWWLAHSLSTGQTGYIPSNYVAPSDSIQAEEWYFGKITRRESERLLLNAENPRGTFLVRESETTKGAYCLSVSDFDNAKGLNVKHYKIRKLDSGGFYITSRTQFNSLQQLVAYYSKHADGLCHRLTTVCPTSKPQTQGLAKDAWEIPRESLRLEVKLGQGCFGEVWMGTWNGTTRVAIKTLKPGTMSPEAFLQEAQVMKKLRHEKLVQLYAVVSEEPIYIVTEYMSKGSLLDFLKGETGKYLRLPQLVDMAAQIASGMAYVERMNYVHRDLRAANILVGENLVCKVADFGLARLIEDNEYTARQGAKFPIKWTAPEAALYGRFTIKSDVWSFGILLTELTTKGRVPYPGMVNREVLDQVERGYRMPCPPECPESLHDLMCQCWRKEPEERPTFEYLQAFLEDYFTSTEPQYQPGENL

Q: With `Cc1ccc(-c2nn(C(C)(C)CNC(=O)c3cccnc3)c3ncnc(N)c23)cc1` [Example 60] as the compound, how does the IC50 read?
A: 100 to 1000 nM

Q: `Cc1ccc(-c2nn(C(C)(C)CNC(=N)c3ccccn3)c3ncnc(N)c23)cc1` [Example 77] was tested. Which IC50 did it give?
A: 1 to 100 nM

Q: With `COc1ccnc(C(=O)NCC(C)(C)n2nc(-c3ccc(C)cc3)c3c(N)ncnc32)c1` [Example 61] as the compound, how does the IC50 read?
A: 1 to 100 nM

Q: How did the IC50 turn out when `CC(C)(CNC(=O)c1ccccn1)n1nc(-c2ccc(Cl)cc2)c2c(N)ncnc21` [Example 75] was run?
A: 1 to 100 nM

Q: How did the IC50 turn out when `Cc1ccc(-c2nn(C(C)(C)CNC(=O)c3cc(Br)ccn3)c3ncnc(N)c23)cc1` [Example 42] was run?
A: 1 to 100 nM

Q: `Cc1ccc(-c2nn(C(C)(C)CNC(=O)c3cnccn3)c3ncnc(N)c23)cc1` [Example 56] was tested. Which IC50 did it give?
A: 1 to 100 nM

Q: For `Cc1ccc(-c2nn(C(C)(C)CNC(=O)c3cscn3)c3ncnc(N)c23)cc1` [Example 64], which IC50 is on record?
A: 1 to 100 nM

Q: For `Cc1ccc(-c2nn(C(C)(C)CNC(=O)c3ncccc3C)c3ncnc(N)c23)cc1` [Example 71], which IC50 is on record?
A: > 10000 nM

Q: Which IC50 does the source give for `Cc1ccc(-c2nn(C(C)(C)CNC(=O)c3cc(-c4ccccc4)ccn3)c3ncnc(N)c23)cc1` [Example 66] here?
A: 1 to 100 nM

Q: With `Cc1ccc(-c2nn(C(C)(C)CNC(=O)c3cncnc3)c3ncnc(N)c23)cc1` [Example 57] as the compound, how does the IC50 read?
A: 1000 to 10000 nM

Q: Which IC50 does the source give for `Cc1ccc(-c2nn(C(C)(C)CNC(=N)c3ccccc3)c3ncnc(N)c23)cc1` [Example 76] here?
A: 1000 to 10000 nM

Q: Which IC50 does the source give for `Cc1ccc(-c2nn(C(C)(C)CNC(=O)c3ccccn3)c3ncnc(N)c23)cc1` [Example 12] here?
A: 1 to 100 nM

Q: How did the IC50 turn out when `Cc1ccc(-c2nn(C(C)(C)CNS(=O)(=O)c3ccccc3)c3ncnc(N)c23)cc1` [Example 59] was run?
A: 100 to 1000 nM

Q: Which IC50 does the source give for `Cc1ccc(-c2nn(C(C)(C)CNC(=O)c3cc(Cl)ccn3)c3ncnc(N)c23)cc1` [Example 63] here?
A: 100 to 1000 nM

System: LIM1215
Assay: Cellular activity, MTT cell growth assay, LIM1215
Format: cell-based
Conditions: LIM1215, 96 h; MTT, 4 days incubation; read-out: LIM1215 (cellular data)
Procedure: (§1) A. Cells, Inhibitors and Incubation
(§2) 1. Cell Lines • LIM 1899 colon carcinoma derived epithelial cells were grown in RPMI+Adds^1+10% FCS. ^1 Additives for culture of LIM cell lines: 10 μM thioglycerol, 0.025 U/mL insulin, 1 μg/mL hydrocortisone
(§3) 2. Cell Plating in 96 Well Plate. • Assay medium: RPMI+Adds+5% FCS • Cells are trypsinized, washed once in assay medium and brought to the required concentration as described below: • Need 10^4 cells per well in 100 μL per well=10^5 per mL for plating • After washing, cells were resuspended in 5 mL and counted (1×T75 flask gives approx 2−3×10 eg^6 per mL). • Cells were then diluted to 10^5 cells/mL (need 10 mL minimum per plate). • Eg. Cell count in 5 mL is 25×10^5/mL • For 10^5/mL, dilute 1 mL to 25 mL • 100 μL per well cells were plated with multistepper pipette, over the whole plate. Plates were incubated overnight at 37° C.+5% CO2 incubator.
(§4) 3. Inhibitor Stocks • Inhibitors were dissolved in DMSO for 10 mM stocks. MW and amount of compound given was used to calculate the volume required for each. • 4× the highest concentration of the compound in the assay was calculated to prepare the working stocks. • eg 1st well final concentration in assay was 10 μM. • Therefore working stock was 40 μM • Stock solution is 10 mM→40 μM=4 μl in 1.0 mL assay medium for working stock.
(§5) 4. Plate Plan: • Rows A,B: Inhibitor 1 • Rows C,D: Inhibitor 2 • Rows E,F: Inhibitor 3 • Row G: RPMI+Adds+5% FCS (=maximum growth) • Row H: RPMI+Adds serum free (=minimum growth)
(§6) 5. Titration of Inhibitors • A 96 well plate was used to titrate the inhibitors for each assay plate: • 150 μL assay medium was added to each well of a 96 well plate. • 150 μL of Inhibitor 1 working stock was added wells A1 and B1. • Repeated with Inhibitor 2 to C1 and D1 • Repeated with Inhibitor 3 to E1 and F1 • Serial ½ dilutions were performed across the plate, rows A to F, left to right with 150 μL.
(§7) 6. Transfer Titrated Inhibitors to Cell Assay Plate: Final Volume 200 μl • Using a multichannel pipette, 100 μL was transferred from the corresponding wells of the titration plate to the cell assay plate, rows A to G. • Row H: medium was carefully removed from the cell wells with a 200 μL tip, and replaced with 200 μL serum free medium.
(§8) 7. Incubation • Plates were incubated for 4 days at 37° C. with 5% CO2.
(§9) B. Use of MTT to Measure Cell Growth
(§10) 1. MTT Preparation and Storage • MTT Sigma M-2128 5 g • Dissolved in PBS, at 5 mg/mL • 5 g bottle dissolved in 1 liter PBS (some impurities remain) • Filter sterilized and aliquoted in 50 mL tubes, stored at −20° C. • As needed, 50 mL tube was thawed and aliquoted in 5 mL tubes, re-stored at −20° C. • Stable at 4° C. for 1 month (unstable if left at 37° C. too long while thawing)
(§11) 2. MTT Solvent • a. 1M HCl: • Mixed 44.6 mL conc HCl (11.2M) in 500 mL DDW • b. Acidified isopropanol (Isopropanol with 0.04 N HCl): • Mixed 20 mL 1M HCl with 480 mL isopropanol (Propan-2-ol, iso-Propyl Alcohol)
(§12) 3. MTT Assay • After cell incubation (above): • Added 10 μL MTT to each well. • Incubated 4 hrs in 37° C. incubator. • Spun plates, 5 min, 1500 rpm. • Carefully flicked out medium into the sink, without disturbing the crystals. • Added 200 μL acidified isopropanol per well. • Placed on plate shaker, RT, speed 6.5, for 10 min-30 min. • Read OD of plates on Thermo Multiskan Ex, at 560/690 nm.
(§13) • Mosmann, T. • Rapid colorimetric assay for cellular growth and survival: application to proliferation and cytotoxic assays. Journal of Immunological Methods (1983), 65:55-63. Table with Examples of Cellular Data
(§14) The compounds in this invention display cellular activities against a range of tumour or transformed cell lines in particular colon cancer cell lines such as LIM1215, LIM2537 and LIM1899.

Q: For `Cc1ccc(-c2nn(C(C)(C)CNC(=O)c3cccnc3)c3ncnc(N)c23)cc1` [Example 60], which IC50 is on record?
A: 1900 nM

Q: Which IC50 does the source give for `COc1ccnc(C(=O)NCC(C)(C)n2nc(-c3ccc(C)cc3)c3c(N)ncnc32)c1` [Example 61] here?
A: 800 nM

Q: Which IC50 does the source give for `Cc1ccc(-c2nn(C(C)(C)CNC(=O)c3cc(Br)ccn3)c3ncnc(N)c23)cc1` [Example 42] here?
A: 900 nM

Q: `Cc1ccc(-c2nn(C(C)(C)CNC(=O)c3cnccn3)c3ncnc(N)c23)cc1` [Example 56] was tested. Which IC50 did it give?
A: 400 nM

Q: With `Cc1ccc(-c2nn(C(C)(C)CNC(=O)c3cc(-c4ccccc4)ccn3)c3ncnc(N)c23)cc1` [Example 66] as the compound, how does the IC50 read?
A: 520 nM

Q: `Cc1ccc(-c2nn(C(C)(C)CNC(=O)c3cncnc3)c3ncnc(N)c23)cc1` [Example 57] was tested. Which IC50 did it give?
A: 1600 nM

Q: For `Cc1ccc(-c2nn(C(C)(C)CNC(=O)c3ccccn3)c3ncnc(N)c23)cc1` [Example 12], which IC50 is on record?
A: 170 nM

Q: `Cc1ccc(-c2nn(C(C)(C)CNS(=O)(=O)c3ccccc3)c3ncnc(N)c23)cc1` [Example 59] was tested. Which IC50 did it give?
A: 3100 nM

Q: How did the IC50 turn out when `Cc1ccc(-c2nn(C(C)(C)CNC(=O)c3cc(Cl)ccn3)c3ncnc(N)c23)cc1` [Example 63] was run?
A: 2600 nM

System: LIM2537
Assay: Cellular activity, MTT cell growth assay, LIM2537
Format: cell-based
Conditions: 96 h, 4 days incubation
Procedure: as §1, §2, §3, §4, §5, §6, §7, §8, §9, §10, §11, §12, §13, §14

Q: How did the IC50 turn out when `Cc1ccc(-c2nn(C(C)(C)CNC(=N)c3ccccn3)c3ncnc(N)c23)cc1` [Example 77] was run?
A: > 10000 nM

Q: With `CC(C)(CNC(=O)c1ccccn1)n1nc(-c2ccc(Cl)cc2)c2c(N)ncnc21` [Example 75] as the compound, how does the IC50 read?
A: 1600 nM

Q: With `Cc1ccc(-c2nn(C(C)(C)CNC(=O)c3cscn3)c3ncnc(N)c23)cc1` [Example 64] as the compound, how does the IC50 read?
A: 1100 nM

Q: With `Cc1ccc(-c2nn(C(C)(C)CNC(=N)c3ccccc3)c3ncnc(N)c23)cc1` [Example 76] as the compound, how does the IC50 read?
A: > 10000 nM

Q: `Cc1ccc(-c2nn(C(C)(C)CNC(=O)c3ccccn3)c3ncnc(N)c23)cc1` [Example 12] was tested. Which IC50 did it give?
A: 170 nM

System: RasNIH3T3
Assay: Cellular activity, MTT cell growth assay, RasNIH3T3
Format: cell-based
Conditions: 96 h; MTT, 4 days incubation; read-out: RasNIH3T3 (cellular data)

Q: For `Cc1ccc(-c2nn(C(C)(C)CNC(=O)c3cccnc3)c3ncnc(N)c23)cc1` [Example 60], which IC50 is on record?
A: 17000 nM

Q: Which IC50 does the source give for `COc1ccnc(C(=O)NCC(C)(C)n2nc(-c3ccc(C)cc3)c3c(N)ncnc32)c1` [Example 61] here?
A: 1830 nM

Q: Which IC50 does the source give for `Cc1ccc(-c2nn(C(C)(C)CNC(=O)c3cc(Br)ccn3)c3ncnc(N)c23)cc1` [Example 42] here?
A: 1900 nM

Q: Which IC50 does the source give for `Cc1ccc(-c2nn(C(C)(C)CNC(=O)c3cnccn3)c3ncnc(N)c23)cc1` [Example 56] here?
A: 1620 nM

Q: With `Cc1ccc(-c2nn(C(C)(C)CNC(=O)c3cscn3)c3ncnc(N)c23)cc1` [Example 64] as the compound, how does the IC50 read?
A: 630 nM

Q: `Cc1ccc(-c2nn(C(C)(C)CNC(=O)c3cc(-c4ccccc4)ccn3)c3ncnc(N)c23)cc1` [Example 66] was tested. Which IC50 did it give?
A: 500 nM

Q: Which IC50 does the source give for `Cc1ccc(-c2nn(C(C)(C)CNC(=O)c3cncnc3)c3ncnc(N)c23)cc1` [Example 57] here?
A: > 20000 nM

Q: Which IC50 does the source give for `Cc1ccc(-c2nn(C(C)(C)CNC(=O)c3ccccn3)c3ncnc(N)c23)cc1` [Example 12] here?
A: 110 nM

Q: How did the IC50 turn out when `Cc1ccc(-c2nn(C(C)(C)CNS(=O)(=O)c3ccccc3)c3ncnc(N)c23)cc1` [Example 59] was run?
A: > 20000 nM

Q: `Cc1ccc(-c2nn(C(C)(C)CNC(=O)c3cc(Cl)ccn3)c3ncnc(N)c23)cc1` [Example 63] was tested. Which IC50 did it give?
A: 6290 nM

System: LIM 1899 colon carcinoma derived epithelial cells
Assay: Cellular activity, MTT cell growth assay, LIM1899
Format: cell-based
Conditions: 96 h, 4 days incubation
Procedure: as §1, §2, §3, §4, §5, §6, §7, §8, §9, §10, §11, §12, §13, §14

Q: `COc1ccnc(C(=O)NCC(C)(C)n2nc(-c3ccc(C)cc3)c3c(N)ncnc32)c1` [Example 61] was tested. Which IC50 did it give?
A: 1600 nM

Q: With `CC(C)(CNC(=O)c1ccccn1)n1nc(-c2ccc(Cl)cc2)c2c(N)ncnc21` [Example 75] as the compound, how does the IC50 read?
A: 900 nM

Q: Which IC50 does the source give for `Cc1ccc(-c2nn(C(C)(C)CNC(=O)c3cscn3)c3ncnc(N)c23)cc1` [Example 64] here?
A: 880 nM

Q: How did the IC50 turn out when `Cc1ccc(-c2nn(C(C)(C)CNC(=O)c3ncccc3C)c3ncnc(N)c23)cc1` [Example 71] was run?
A: 3100 nM

Q: How did the IC50 turn out when `Cc1ccc(-c2nn(C(C)(C)CNC(=O)c3cc(-c4ccccc4)ccn3)c3ncnc(N)c23)cc1` [Example 66] was run?
A: 310 nM

Q: How did the IC50 turn out when `Cc1ccc(-c2nn(C(C)(C)CNC(=N)c3ccccc3)c3ncnc(N)c23)cc1` [Example 76] was run?
A: 19000 nM

Q: Which IC50 does the source give for `Cc1ccc(-c2nn(C(C)(C)CNC(=O)c3ccccn3)c3ncnc(N)c23)cc1` [Example 12] here?
A: 170 nM

Q: With `Cc1ccc(-c2nn(C(C)(C)CNC(=O)c3cc(Cl)ccn3)c3ncnc(N)c23)cc1` [Example 63] as the compound, how does the IC50 read?
A: 1700 nM
